Converted amounts (≈) assume the structure as drawn. Read-outs that look alike come from different tables or passages of the source.
What was measured:
Experiment in all cases: Antibacterial activity (MIC), standard method of Japan Society of Chemotherapy
Format in all cases: cell-based
S. epidermidis, 56500 = system: S. epidermidis, 56500
Procedure: (§1) Examples of the present invention are given below by way of illustration and not by way of limitation. In this connection, antibacterial activity of each compound of interest was measured in accordance with the standard method designated by Japan Society of Chemotherapy. The results are shown in Tables 1 to 3 as minimum inhibitory concentration (MIC, µg/ml).

Str. pyogenes, G-36 = conditions: Streptococcus pyogenes
Procedure: as §1

Ps. aeruginosa, 32121 = conditions: Pseudomonas aeruginosa, strain Ps. aeruginosa, read-out: minimum inhibitory concentration (MIC)
Procedure: as §1

Ps. aeruginosa, 32104 = conditions: Pseudomonas aeruginosa, strain Ps. aeruginosa, read-out: minimum inhibitory concentration (MIC)
Procedure: as §1

S. aureus, 870307 = conditions: Staphylococcus aureus, strain S. aureus, read-out: minimum inhibitory concentration (MIC)
Procedure: as §1

[1] = system: Ps. maltophilia, IID-1275; conditions: Stenotrophomonas maltophilia, IID1275, strain Ps. maltophilia, read-out: minimum inhibitory concentration (MIC)
Procedure: as §1

S. flexneli, 2A 5503 = conditions: strain S. flexneli, read-out: minimum inhibitory concentration (MIC)
Procedure: as §1

[2] = system: Str. faecalis, ATCC-19433; conditions: Enterococcus faecalis, ATCC19433, strain Str. faecalis, read-out: minimum inhibitory concentration (MIC)
Procedure: as §1

Pr. mirabilis, IFO-3849 = conditions: Proteus mirabilis, IFO3849, strain Pr. mirabilis, read-out: minimum inhibitory concentration (MIC)
Procedure: as §1

Pr. vulgaris, 08601 = system: Pr. vulgaris, 08601
Procedure: as §1

E. coli, NIHJ = conditions: Escherichia coli, read-out: minimum inhibitory concentration (MIC)
Procedure: as §1

S. aureus, 209P = conditions: Staphylococcus aureus, strain S. aureus, read-out: minimum inhibitory concentration (MIC)
Procedure: as §1

Ser. marcescens, 10100 = conditions: Serratia marcescens, strain Ser. marcescens, read-out: minimum inhibitory concentration (MIC)
Procedure: as §1

[3] = Staphylococcus epidermidis, 56500, read-out: minimum inhibitory concentration (MIC)
[4] = G36, strain Str. pyogenes, G-36, read-out: minimum inhibitory concentration (MIC)
[5] = Proteus vulgaris, strain Pr. vulgaris, 08601, read-out: minimum inhibitory concentration (MIC)
[6] = Staphylococcus epidermidis, strain S. epidermidis, 56500, read-out: minimum inhibitory concentration (MIC)

SMILES | MIC (S. epidermidis, 56500; [3]) | MIC (Str. pyogenes, G-36; [4]) | MIC (Ps. aeruginosa, 32121) | MIC (Ps. aeruginosa, 32104) | MIC (S. aureus, 870307) | MIC [1] | MIC (S. flexneli, 2A 5503) | MIC [2] | MIC (Pr. mirabilis, IFO-3849) | MIC (Pr. vulgaris, 08601; [5]) | MIC (E. coli, NIHJ) | MIC (S. aureus, 209P) | MIC (Ser. marcescens, 10100) | MIC (E. coli, NIHJ; strain E. coli, NIHJ) | MIC (Str. pyogenes, G-36; G36, read-out: minimum inhibitory concentration (MIC)) | MIC (S. epidermidis, 56500; [6]) | MIC (Pr. vulgaris, 08601; Proteus vulgaris, 08601, read-out: minimum inhibitory concentration (MIC))
CO[C@H]1CN(c2c(F)c(N)c3c(=O)c(C(=O)O)cn([C@@H]4C[C@@H]4F)c3c2C)C[C@@H]1C1(N)CC1 [compound 4] | 0.013 µg/mL (≈ 0.029 µM) | 0.025 µg/mL (≈ 0.0557 µM) | 0.39 µg/mL (≈ 0.87 µM) | 0.78 µg/mL (≈ 1.74 µM) | 0.1 µg/mL (≈ 0.223 µM) | 0.2 µg/mL (≈ 0.446 µM) | 0.013 µg/mL (≈ 0.029 µM) | 0.1 µg/mL (≈ 0.223 µM) | 0.2 µg/mL (≈ 0.446 µM) | 0.1 µg/mL (≈ 0.223 µM) | 0.013 µg/mL (≈ 0.029 µM) | ≤ 0.003 µg/mL | 0.2 µg/mL (≈ 0.446 µM) |  |  |  | 
Cc1c(N2C[C@H](F)[C@@H](C3(N)CC3)C2)c(F)c(N)c2c(=O)c(C(=O)O)cn([C@@H]3C[C@@H]3F)c12 [compound 5] |  | ≤ 0.003 µg/mL | 0.05 µg/mL (≈ 0.115 µM) | 0.1 µg/mL (≈ 0.229 µM) | 0.006 µg/mL (≈ 0.0137 µM) | 0.05 µg/mL (≈ 0.115 µM) | ≤ 0.003 µg/mL | 0.013 µg/mL (≈ 0.0298 µM) | 0.025 µg/mL (≈ 0.0573 µM) | 0.013 µg/mL (≈ 0.0298 µM) |  | ≤ 0.003 µg/mL | 0.05 µg/mL (≈ 0.115 µM) | ≤ 0.003 µg/mL |  |  | 
C[C@H]1COc2c(N3C[C@H](F)[C@@H](C4(N)CC4)C3)c(F)cc3c(=O)c(C(=O)O)cn1c23 [compound 6] | 0.025 µg/mL (≈ 0.0617 µM) |  | 0.2 µg/mL (≈ 0.493 µM) | 0.78 µg/mL (≈ 1.92 µM) | 0.39 µg/mL (≈ 0.962 µM) | 0.39 µg/mL (≈ 0.962 µM) | 0.025 µg/mL (≈ 0.0617 µM) | 0.1 µg/mL (≈ 0.247 µM) | 0.2 µg/mL (≈ 0.493 µM) | 0.05 µg/mL (≈ 0.123 µM) |  | 0.006 µg/mL (≈ 0.0148 µM) | 0.1 µg/mL (≈ 0.247 µM) | 0.013 µg/mL (≈ 0.0321 µM) | 0.025 µg/mL (≈ 0.0617 µM) |  | 
Cc1c(N2C[C@H](C3(N)CC3)C(F)(F)C2)c(F)c(N)c2c(=O)c(C(=O)O)cn([C@@H]3C[C@@H]3F)c12 [compound 7] |  | ≤ 0.003 µg/mL | 0.05 µg/mL (≈ 0.11 µM) | 0.1 µg/mL (≈ 0.22 µM) | 0.013 µg/mL (≈ 0.0286 µM) | 0.05 µg/mL (≈ 0.11 µM) | ≤ 0.003 µg/mL | 0.013 µg/mL (≈ 0.0286 µM) | 0.025 µg/mL (≈ 0.055 µM) | 0.05 µg/mL (≈ 0.11 µM) |  | ≤ 0.003 µg/mL | 0.05 µg/mL (≈ 0.11 µM) | ≤ 0.003 µg/mL |  | ≤ 0.003 µg/mL | 
C[C@H]1COc2c(N3C[C@H](C4(N)CC4)C(F)(F)C3)c(F)cc3c(=O)c(C(=O)O)cn1c23 [compound 8] |  | 0.1 µg/mL (≈ 0.236 µM) | 0.39 µg/mL (≈ 0.921 µM) | 1.56 µg/mL (≈ 3.68 µM) | 0.78 µg/mL (≈ 1.84 µM) | 0.39 µg/mL (≈ 0.921 µM) | 0.05 µg/mL (≈ 0.118 µM) | 0.2 µg/mL (≈ 0.472 µM) | 0.78 µg/mL (≈ 1.84 µM) | 0.1 µg/mL (≈ 0.236 µM) |  | 0.025 µg/mL (≈ 0.059 µM) | 0.39 µg/mL (≈ 0.921 µM) | 0.025 µg/mL (≈ 0.059 µM) |  | 0.05 µg/mL (≈ 0.118 µM) | 
COc1c(N2C[C@@H](F)[C@@H](C3(N)CC3)C2)c(F)cc2c(=O)c(C(=O)O)cn([C@@H]3C[C@@H]3F)c12 [compound 12] | 0.013 µg/mL (≈ 0.0297 µM) | 0.006 µg/mL (≈ 0.0137 µM) | 0.1 µg/mL (≈ 0.229 µM) | 0.39 µg/mL (≈ 0.892 µM) | 0.025 µg/mL (≈ 0.0572 µM) | 0.2 µg/mL (≈ 0.457 µM) | 0.013 µg/mL (≈ 0.0297 µM) | 0.025 µg/mL (≈ 0.0572 µM) | 0.05 µg/mL (≈ 0.114 µM) |  |  | ≤ 0.003 µg/mL | 0.1 µg/mL (≈ 0.229 µM) | ≤ 0.003 µg/mL |  |  | 0.013 µg/mL (≈ 0.0297 µM)

Reference: patent EP0911328B1, “SUBSTITUTED AMINOCYCLOALKYLPYRROLIDINE DERIVATIVES” (DAIICHI PHARMACEUTICAL CO., LTD., priority 1995, dated 1997)
